pIC50: −log10 of the molar value. Read-outs that look alike come from different tables or passages of the source.
Assays:
Type in all cases: biochemical
CYP2D6 = target: T1, CYP2D6 (Homo sapiens, UniProt P10635); experiment: dextromethorphan to dextrorphan, LC-MS/MS; settings: microsomes, read-out: IC50 value / Kushenol A
T1 construct: native enzyme in pooled human liver microsomes, dextromethorphan O-demethylation probe
Excerpt: dextromethorphan to dextrorphan, LC-MS/MS on CYP2D6

CYP1A2 = target: T2, CYP1A2 (Homo sapiens, UniProt P05177); experiment: phenacetin to acetaminophen, LC-MS/MS; settings: microsomes
T2 construct: native enzyme in pooled human liver microsomes, phenacetin O-deethylation probe
T2 sequence (P05177 2-516): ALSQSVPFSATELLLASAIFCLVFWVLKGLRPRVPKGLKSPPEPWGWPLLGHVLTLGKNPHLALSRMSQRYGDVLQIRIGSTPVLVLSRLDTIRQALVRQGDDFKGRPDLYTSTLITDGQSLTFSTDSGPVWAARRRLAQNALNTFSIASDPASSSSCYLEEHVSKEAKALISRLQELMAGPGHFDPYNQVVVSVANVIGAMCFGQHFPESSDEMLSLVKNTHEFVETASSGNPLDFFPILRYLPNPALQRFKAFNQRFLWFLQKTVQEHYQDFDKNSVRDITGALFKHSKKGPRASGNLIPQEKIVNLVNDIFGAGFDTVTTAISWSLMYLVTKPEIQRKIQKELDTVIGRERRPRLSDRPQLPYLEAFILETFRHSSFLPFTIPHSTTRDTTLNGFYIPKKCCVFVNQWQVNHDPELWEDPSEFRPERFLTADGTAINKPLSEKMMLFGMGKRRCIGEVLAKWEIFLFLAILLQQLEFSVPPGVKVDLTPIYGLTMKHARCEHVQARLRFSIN
Excerpt: phenacetin to acetaminophen, LC-MS/MS on CYP1A2

CYP2B6 = target: T3, CYP2B6 (Homo sapiens, UniProt P20813); experiment: bupropion 6-hydroxylation, LC-MS/MS; settings: microsomes
T3 construct: native enzyme in pooled human liver microsomes, bupropion 6-hydroxylation probe
T3 sequence (P20813 1-491): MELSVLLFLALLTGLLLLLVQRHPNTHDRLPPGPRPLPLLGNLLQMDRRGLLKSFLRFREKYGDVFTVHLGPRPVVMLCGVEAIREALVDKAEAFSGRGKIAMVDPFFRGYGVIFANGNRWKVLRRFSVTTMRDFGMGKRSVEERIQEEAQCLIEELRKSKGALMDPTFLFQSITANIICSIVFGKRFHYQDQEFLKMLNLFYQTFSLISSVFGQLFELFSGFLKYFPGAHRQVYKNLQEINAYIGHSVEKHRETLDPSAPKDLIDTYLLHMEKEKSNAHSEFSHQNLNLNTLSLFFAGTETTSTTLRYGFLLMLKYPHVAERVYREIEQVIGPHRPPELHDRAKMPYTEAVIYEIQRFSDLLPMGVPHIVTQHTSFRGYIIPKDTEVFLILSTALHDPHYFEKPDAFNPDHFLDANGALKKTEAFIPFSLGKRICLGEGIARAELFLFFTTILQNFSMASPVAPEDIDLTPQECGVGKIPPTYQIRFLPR
Excerpt: bupropion 6-hydroxylation, LC-MS/MS on CYP2B6

CYP2C19 = target: T4, CYP2C19 (Homo sapiens, UniProt P33261); experiment: S-mephenytoin 4-hydroxylation, LC-MS/MS; settings: microsomes, read-out: IC50 value / Kushenol A
T4 construct: native enzyme in pooled human liver microsomes, S-mephenytoin 4-hydroxylation probe (methods text misprints CYP2C18)
T4 sequence (P33261 whole entry): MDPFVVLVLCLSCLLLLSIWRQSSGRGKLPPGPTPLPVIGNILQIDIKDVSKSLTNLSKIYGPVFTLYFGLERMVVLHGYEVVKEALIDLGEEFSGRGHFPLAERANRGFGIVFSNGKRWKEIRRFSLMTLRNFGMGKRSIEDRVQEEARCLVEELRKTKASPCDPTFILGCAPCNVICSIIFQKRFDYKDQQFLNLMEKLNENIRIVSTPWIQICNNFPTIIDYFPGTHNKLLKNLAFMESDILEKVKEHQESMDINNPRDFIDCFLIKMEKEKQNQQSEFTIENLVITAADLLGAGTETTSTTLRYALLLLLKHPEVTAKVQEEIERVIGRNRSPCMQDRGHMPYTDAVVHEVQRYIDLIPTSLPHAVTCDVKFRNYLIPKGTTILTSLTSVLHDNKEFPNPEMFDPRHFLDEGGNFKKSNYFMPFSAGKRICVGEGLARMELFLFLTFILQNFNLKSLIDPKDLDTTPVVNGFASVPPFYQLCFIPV
Excerpt: S-mephenytoin 4-hydroxylation, LC-MS/MS on CYP2C19

CYP2C9 = target: T5, CYP2C9 (Homo sapiens, UniProt P11712); experiment: diclofenac hydroxylation, LC-MS/MS; settings: microsomes
T5 construct: methods text says tolbutamide
T5 sequence (P11712 whole entry): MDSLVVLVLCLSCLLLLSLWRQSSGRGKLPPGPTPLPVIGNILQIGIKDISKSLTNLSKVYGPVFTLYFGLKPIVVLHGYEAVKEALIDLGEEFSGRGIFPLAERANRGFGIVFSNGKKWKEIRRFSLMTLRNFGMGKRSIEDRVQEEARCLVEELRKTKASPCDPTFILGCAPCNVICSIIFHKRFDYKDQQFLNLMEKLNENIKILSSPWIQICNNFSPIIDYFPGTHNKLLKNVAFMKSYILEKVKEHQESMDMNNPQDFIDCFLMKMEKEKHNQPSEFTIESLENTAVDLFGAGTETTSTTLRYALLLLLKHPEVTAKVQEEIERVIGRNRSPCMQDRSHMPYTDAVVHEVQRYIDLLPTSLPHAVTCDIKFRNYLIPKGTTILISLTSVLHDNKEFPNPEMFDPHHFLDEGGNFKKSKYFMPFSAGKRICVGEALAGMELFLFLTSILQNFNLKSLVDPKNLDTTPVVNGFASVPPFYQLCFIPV
Excerpt: diclofenac hydroxylation, LC-MS/MS on CYP2C9

CYP2C8 = target: T6, CYP2C8 (Homo sapiens, UniProt P10632); experiment: rosiglitazone hydroxylation, LC-MS/MS; settings: microsomes
T6 construct: methods text says paclitaxel
T6 sequence (P10632 1-490): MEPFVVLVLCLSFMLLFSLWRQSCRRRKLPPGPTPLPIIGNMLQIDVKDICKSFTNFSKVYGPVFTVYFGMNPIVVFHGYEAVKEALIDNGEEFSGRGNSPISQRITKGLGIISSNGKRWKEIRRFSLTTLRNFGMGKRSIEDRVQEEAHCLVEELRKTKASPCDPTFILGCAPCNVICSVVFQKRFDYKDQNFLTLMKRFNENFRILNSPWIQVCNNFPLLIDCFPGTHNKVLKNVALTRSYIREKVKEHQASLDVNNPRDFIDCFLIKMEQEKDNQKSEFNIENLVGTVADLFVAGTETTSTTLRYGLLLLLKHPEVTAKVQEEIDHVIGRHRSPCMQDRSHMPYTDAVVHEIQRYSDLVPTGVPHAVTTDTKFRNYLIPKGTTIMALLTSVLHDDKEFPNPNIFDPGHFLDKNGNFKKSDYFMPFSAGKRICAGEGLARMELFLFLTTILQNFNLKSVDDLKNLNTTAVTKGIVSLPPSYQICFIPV
Excerpt: rosiglitazone hydroxylation, LC-MS/MS on CYP2C8

CYP3A4 [1] = target: T7, CYP3A4 (Homo sapiens, UniProt P08684); experiment: midazolam […]'-hydroxylation, LC-MS/MS; parameters: native enzyme in pooled human liver microsomes, midazolam 1'-hydroxylation probe (CYP3A5 may contribute); settings: microsomes, read-out: IC50 value / Kushenol A
T7 sequence (P08684 2-503): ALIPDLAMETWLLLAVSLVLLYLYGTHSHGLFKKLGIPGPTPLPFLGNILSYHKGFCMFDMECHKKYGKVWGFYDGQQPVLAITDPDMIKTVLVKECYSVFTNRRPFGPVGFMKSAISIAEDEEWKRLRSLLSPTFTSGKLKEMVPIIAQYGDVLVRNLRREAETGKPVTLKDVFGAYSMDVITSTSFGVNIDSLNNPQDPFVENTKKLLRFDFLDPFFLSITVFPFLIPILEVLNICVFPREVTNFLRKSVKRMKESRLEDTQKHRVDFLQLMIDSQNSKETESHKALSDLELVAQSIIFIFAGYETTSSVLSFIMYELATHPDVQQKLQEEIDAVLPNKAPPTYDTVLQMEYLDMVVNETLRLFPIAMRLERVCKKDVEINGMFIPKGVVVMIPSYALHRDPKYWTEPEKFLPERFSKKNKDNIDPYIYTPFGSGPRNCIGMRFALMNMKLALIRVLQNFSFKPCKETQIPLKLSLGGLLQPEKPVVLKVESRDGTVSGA

CYP3A4 [2] = target: T7, CYP3A4; experiment: time-dependent inactivation, midazolam […]'-hydroxylation, LC-MS/MS; parameters: recombinant, baculovirus-insect cell expressed, commercial (BD Gentest)
CYP3A4 [3] = target: T7, CYP3A4; experiment: as above; parameters: native enzyme in pooled human liver microsomes, midazolam 1'-hydroxylation probe (CYP3A5 may contribute); settings: microsomes
CYP2A6 = target: T8, CYP2A6 (Homo sapiens, UniProt P11509); experiment: coumarin 7-hydroxylation, LC-MS/MS; settings: human liver microsomes; no preincubation; NADPH-generating system, pH 7.4, 37°C; read-out: IC50 value / Kushenol A
T8 construct: native enzyme in pooled human liver microsomes, coumarin 7-hydroxylation probe
T8 sequence (P11509 1-494): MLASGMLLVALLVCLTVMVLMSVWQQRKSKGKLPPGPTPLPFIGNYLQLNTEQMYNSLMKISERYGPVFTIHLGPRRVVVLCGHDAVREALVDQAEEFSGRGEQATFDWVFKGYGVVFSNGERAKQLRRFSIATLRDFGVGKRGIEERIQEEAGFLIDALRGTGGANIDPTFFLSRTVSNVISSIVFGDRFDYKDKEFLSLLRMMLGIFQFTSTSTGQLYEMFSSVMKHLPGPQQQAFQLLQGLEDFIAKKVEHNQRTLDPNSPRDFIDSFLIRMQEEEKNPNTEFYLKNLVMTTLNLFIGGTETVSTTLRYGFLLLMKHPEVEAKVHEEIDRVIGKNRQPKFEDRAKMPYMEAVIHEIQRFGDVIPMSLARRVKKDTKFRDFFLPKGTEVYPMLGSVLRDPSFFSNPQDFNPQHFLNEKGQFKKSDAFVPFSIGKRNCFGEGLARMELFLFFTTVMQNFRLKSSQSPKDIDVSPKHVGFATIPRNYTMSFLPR
Excerpt: coumarin 7-hydroxylation, LC-MS/MS on CYP2A6

[4] = read-out: IC50 value / Kushenol C
[5] = read-out: IC50 value / Kushenol A
[6] = read-out: IC50 value / Kushenol I
[7] = read-out: IC50 value / Sophoraflavone G
[8] = read-out: IC50 value / Leachianone A

T1 sequence (P10635 whole entry): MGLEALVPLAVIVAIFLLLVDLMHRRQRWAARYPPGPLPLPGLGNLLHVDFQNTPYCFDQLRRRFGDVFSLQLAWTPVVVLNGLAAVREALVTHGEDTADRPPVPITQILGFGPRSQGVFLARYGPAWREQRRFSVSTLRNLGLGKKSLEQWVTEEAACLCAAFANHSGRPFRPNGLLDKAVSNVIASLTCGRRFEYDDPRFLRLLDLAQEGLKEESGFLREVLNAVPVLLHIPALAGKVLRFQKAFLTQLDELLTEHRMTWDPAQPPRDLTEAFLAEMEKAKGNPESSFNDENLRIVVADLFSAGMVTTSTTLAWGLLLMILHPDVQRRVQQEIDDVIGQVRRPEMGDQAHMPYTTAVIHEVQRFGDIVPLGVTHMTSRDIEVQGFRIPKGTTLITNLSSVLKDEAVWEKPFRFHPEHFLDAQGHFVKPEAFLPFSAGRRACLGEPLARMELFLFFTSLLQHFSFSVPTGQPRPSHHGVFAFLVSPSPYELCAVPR

| SMILES | pIC50 (CYP2D6) | pIC50 (CYP1A2; [4]) | pIC50 (CYP2B6; [5]) | pIC50 (CYP2C19) | pIC50 (CYP2C9; [4]) | pIC50 (CYP2C8; [5]) | pIC50 (CYP3A4 [1]) | KI (inactivation) (CYP3A4 [2]) [µM] | pIC50 (CYP1A2; [5]) | pIC50 (CYP2C9; [6]) | pIC50 (CYP2C8; [6]) | KI (inactivation) (CYP3A4 [3]) [µM] | pIC50 (CYP2C9; [5]) | pIC50 (CYP2A6) | pIC50 (CYP1A2; [7]) | pIC50 (CYP2B6; [7]) | pIC50 (CYP2C9; [7]) | pIC50 (CYP2C8; [7]) | pIC50 (CYP2B6; [8]) | pIC50 (CYP2C8; [8]) |
| --- | --- | --- | --- | --- | --- | --- | --- | --- | --- | --- | --- | --- | --- | --- | --- | --- | --- | --- | --- | --- |
| C=C(C)[C@H](CC=C(C)C)Cc1c(O)cc(O)c2c(=O)c(O)c(-c3ccc(O)cc3O)oc12 [Kushenol C] | < 4.30 | 5.30 | < 4.30 | < 4.30 | 5.03 | < 4.30 | < 4.30 | – | – | – | – | – | – | – | – | – | – | – | – | – |
| C=C(C)[C@H](CC=C(C)C)Cc1c(O)cc(OC)c2c1O[C@H](c1ccc(O)cc1O)[C@@H](O)C2=O [Kushenol I] | < 4.30 | – | < 4.30 | < 4.30 | – | – | < 4.30 | 0.88 | < 4.30 | 5.13 | 6.17 | 0.24 | – | – | – | – | – | – | – | – |
| C=C(C)[C@H](CC=C(C)C)Cc1c(O)cc(O)c2c1O[C@H](c1ccccc1O)CC2=O [Kushenol A] | < 4.30 | – | < 4.30 | < 4.30 | – | < 4.30 | < 4.30 | – | < 4.30 | – | – | – | < 4.30 | < 4.30 | – | – | – | – | – | – |

Next, values leading:

| pIC50 (CYP2D6) | pIC50 (CYP1A2; [4]) | pIC50 (CYP2B6; [5]) | pIC50 (CYP2C19) | pIC50 (CYP2C9; [4]) | pIC50 (CYP2C8; [5]) | pIC50 (CYP3A4 [1]) | KI (inactivation) (CYP3A4 [2]) [µM] | pIC50 (CYP1A2; [5]) | pIC50 (CYP2C9; [6]) | pIC50 (CYP2C8; [6]) | KI (inactivation) (CYP3A4 [3]) [µM] | pIC50 (CYP2C9; [5]) | pIC50 (CYP2A6) | pIC50 (CYP1A2; [7]) | pIC50 (CYP2B6; [7]) | pIC50 (CYP2C9; [7]) | pIC50 (CYP2C8; [7]) | pIC50 (CYP2B6; [8]) | pIC50 (CYP2C8; [8]) | SMILES |
| --- | --- | --- | --- | --- | --- | --- | --- | --- | --- | --- | --- | --- | --- | --- | --- | --- | --- | --- | --- | --- |
| < 4.30 | – | – | – | – | – | < 4.30 | – | – | – | – | – | – | < 4.30 | 5.65 | 5.62 | 5.90 | 6.49 | – | – | C=C(C)[C@H](CC=C(C)C)Cc1c(O)cc(O)c2c1O[C@H](c1ccc(O)cc1O)CC2=O [Sophoraflavone G] |
| < 4.30 | – | – | < 4.30 | – | – | < 4.30 | – | < 4.30 | – | – | – | < 4.30 | – | – | – | – | – | 5.24 | 6.12 | C=C(C)[C@H](CC=C(C)C)Cc1c(O)cc(O)c2c1O[C@H](c1ccc(O)cc1OC)CC2=O [Leachianone A] |
| < 4.30 | – | < 4.30 | < 4.30 | – | < 4.30 | < 4.30 | – | < 4.30 | – | – | – | < 4.30 | – | – | – | – | – | – | – | C=C(C)[C@H](CC=C(C)C)Cc1c(O)c(CC=C(C)C)c(O)c2c1O[C@H](c1ccc(O)cc1O)[C@@H](O)C2=O [Kushenol M] |
